Among the data in ChEMBL document CHEMBL2086392, “Isomannide derivatives as new class of inhibitors for human kallikrein 7” (Bioorg Med Chem Lett, 2012) are solubility, IC50 and Ki values, retold here.

Data set [1] can be described thus: Solubility of the compound in 10% DMSO. The class given is physicochemical.
Data set [2] has as its target T1, Kallikrein-5 (Homo sapiens, UniProt Q9Y337).
T1 sequence (Q9Y337 whole entry): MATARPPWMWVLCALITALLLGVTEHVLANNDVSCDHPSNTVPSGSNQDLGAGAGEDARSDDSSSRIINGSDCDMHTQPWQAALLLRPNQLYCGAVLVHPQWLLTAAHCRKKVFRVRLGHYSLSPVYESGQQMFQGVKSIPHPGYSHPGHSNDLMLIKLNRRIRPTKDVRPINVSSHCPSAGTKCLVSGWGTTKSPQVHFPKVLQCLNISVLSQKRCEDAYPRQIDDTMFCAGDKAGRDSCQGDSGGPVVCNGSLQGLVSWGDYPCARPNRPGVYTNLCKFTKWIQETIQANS
Nature of the data set: Inhibition of human recombinant KLK5 expressed in insect cell/baculovirus using Abz-KLYSSKQ-EDDnp as substrate by FRET analysis.

In data set [3] the target is T2, Kallikrein-7 (Homo sapiens, UniProt P49862). Nature of the data set: Competitive inhibition of recombinant human KLK7 expressed in insect cell/baculovirus using Abz-KLYSSKQ-EDDnp as substrate by Dixon plot analysis.
Data set [4] can be described thus: Solubility of the compound in aqueous buffer. The class given is physicochemical.
For data set [5], the target named is T1, Kallikrein-5. Nature of the data set: Competitive inhibition of human KLK5 expressed in insect cell/baculovirus using Abz-KLYSSKQ-EDDnp as substrate by Dixon plot analysis.
Data set [6] deals with T2, Kallikrein-7. Nature of the data set: Inhibition of human recombinant KLK7 expressed in insect cell/baculovirus using Abz-KLYSSKQ-EDDnp as substrate by FRET analysis.

Bounds are passed on as bounds.

For orientation: IC50 means the midpoint of a concentration-inhibition curve. As a reminder, the Ki is the dissociation constant of the complex between target and ligand, obtained from inhibition or displacement.

T2 sequence (P49862 whole entry): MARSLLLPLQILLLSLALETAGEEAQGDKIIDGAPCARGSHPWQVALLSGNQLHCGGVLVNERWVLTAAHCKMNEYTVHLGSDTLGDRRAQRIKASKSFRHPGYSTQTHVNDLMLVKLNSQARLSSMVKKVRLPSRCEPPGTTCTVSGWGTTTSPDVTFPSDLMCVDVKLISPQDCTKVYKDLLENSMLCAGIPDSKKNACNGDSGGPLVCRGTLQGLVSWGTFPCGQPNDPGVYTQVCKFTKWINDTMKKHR

Take `O=C(N[C@@H]1CO[C@H]2[C@@H]1OC[C@H]2OCc1ccccc1)/C(=C/c1ccccc1)NC(=O)c1ccccc1`: the solubility result in data set [1] was “Insoluble”.

With `O=C(N[C@@H]1CO[C@H]2[C@@H]1OC[C@H]2OCc1ccccc1)/C(=C/c1cc2ccccc2s1)NC(=O)c1ccccc1`, the solubility entry in data set [1] is recorded as “Insoluble”.

Regarding `O=C(N[C@@H]1CO[C@H]2[C@@H]1OC[C@H]2OCc1ccccc1)/C(=C/c1ccc2ccccc2c1)NC(=O)c1ccccc1`, the solubility result in data set [1] was “Insoluble”.

Regarding `O=C(N[C@@H]1CO[C@H]2[C@@H]1OC[C@H]2OCc1ccccc1)/C(=C/c1cc2ccccc2o1)NC(=O)c1ccccc1`, the solubility result in data set [1] is listed as “Insoluble”.

On to `O=C(N[C@@H]1CO[C@H]2[C@@H]1OC[C@H]2OCc1ccccc1)/C(=C/c1ccc(F)cc1)NC(=O)c1ccccc1` (stereo in doubt), for which, in data set [1], the solubility entry is given as “Insoluble”.

Consider `O=C(N[C@@H]1CO[C@H]2[C@@H]1OC[C@H]2OCc1ccccc1)/C(=C/c1ccc(Cl)cc1)NC(=O)c1ccccc1` (stereo in doubt), for which the solubility result in data set [1] is given as “Insoluble”.

As to `O=C(N[C@@H]1CO[C@H]2[C@@H]1OC[C@H]2OCc1ccccc1)/C(=C/c1ccc(Br)cc1)NC(=O)c1ccccc1` (stereo in doubt), in data set [1], the solubility entry is recorded as “Insoluble”.

Regarding `O=C(N[C@@H]1CO[C@H]2[C@@H]1OC[C@H]2OCc1ccccc1)/C(=C/c1ccc(C(F)(F)F)cc1)NC(=O)c1ccccc1` (stereo in doubt), in data set [1], the solubility entry is listed as “Insoluble”.

Take `COc1ccc(/C=C(\NC(=O)c2ccccc2)C(=O)N[C@@H]2CO[C@H]3[C@@H]2OC[C@H]3OCc2ccccc2)cc1` (stereo in doubt): the solubility result in data set [1] is “Insoluble”.

Take `O=C(N[C@@H]1CO[C@H]2[C@@H]1OC[C@H]2OCc1ccccc1)/C(=C/c1cccs1)NC(=O)c1ccccc1` (stereo in doubt): the results for the half-inhibitory concentration (IC50) in data set [2] and in data set [6] were 99.2 µM and 13.3 µM, respectively. Moreover, the Ki in data set [3] amounted to 1.8 µM; in data set [5] it was 70.7 µM. The solubility entry in data set [4] was “soluble”.

Take `O=C(N[C@@H]1CO[C@H]2[C@@H]1OC[C@H]2OCc1ccccc1)/C(=C/c1ccc2c(c1)OCO2)NC(=O)c1ccccc1` (stereo in doubt): the figures for the IC50 in data set [2] and in data set [6] were more than 1000 µM and 205 µM, respectively. Also, the results for the Ki in data set [3] and in data set [5] were 80.3 µM and 357 µM, respectively. Moreover, in data set [4], the solubility entry is recorded as “soluble”.

On to `O=C(N[C@@H]1CO[C@H]2[C@@H]1OC[C@H]2OCc1ccccc1)/C(=C/c1cccnc1)NC(=O)c1ccccc1` (stereo in doubt), for which the IC50 in data set [2] is 324 µM; in data set [6], 196 µM. Further, the inhibitory constant (Ki) in data set [3] turned out to be 75.1 µM; in data set [5], 200 µM. The solubility entry in data set [4] is listed as “soluble”.

Turning to `O=C(N[C@@H]1CO[C@H]2[C@@H]1OC[C@H]2OCc1ccccc1)/C(=C/c1ccco1)NC(=O)c1ccccc1` (stereo in doubt), the IC50 in data set [2] was 99.1 µM; in data set [6], 16.3 µM. Further, the values for the Ki in data set [3] and in data set [5] were 3 µM and 70.4 µM, respectively. Further, the solubility entry in data set [4] is “soluble”.

Take `CC(=O)N/C(=C\c1cccs1)C(=O)N[C@@H]1CO[C@H]2[C@@H]1OC[C@H]2OCc1ccccc1` (stereo in doubt): the IC50 in data set [2] was 101 µM; in data set [6], 161 µM. The Ki turned out to be 77.4 µM in data set [3] and 71.9 µM in data set [5]. Moreover, the solubility entry in data set [4] is recorded as “soluble”.

As for `O=C(N[C@@H]1CO[C@H]2[C@@H]1OC[C@H]2OCc1ccccc1)/C(=C/c1c[nH]c2ccccc12)NC(=O)c1ccccc1` (stereo in doubt), in data set [1], the solubility entry was “Insoluble”.
